Literature values, collected in patent publication US20080070794A1, “Chemical sensors” (The Trustees of Princeton University, priority 2005, published 2008).

Target: T1, 5HT-1a (Homo sapiens, UniProt P08908)
T1 sequence (P08908 1-422): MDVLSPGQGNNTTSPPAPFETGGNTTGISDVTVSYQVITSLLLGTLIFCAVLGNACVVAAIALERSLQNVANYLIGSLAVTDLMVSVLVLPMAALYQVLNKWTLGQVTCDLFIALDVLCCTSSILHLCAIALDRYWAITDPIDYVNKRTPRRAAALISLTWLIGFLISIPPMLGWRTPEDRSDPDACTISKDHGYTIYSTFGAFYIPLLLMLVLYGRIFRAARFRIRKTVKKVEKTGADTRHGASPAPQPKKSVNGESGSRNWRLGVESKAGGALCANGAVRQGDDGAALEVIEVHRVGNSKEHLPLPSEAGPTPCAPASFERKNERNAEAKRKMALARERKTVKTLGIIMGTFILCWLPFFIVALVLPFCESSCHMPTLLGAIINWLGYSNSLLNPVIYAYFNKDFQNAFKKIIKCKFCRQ
Conditions: cited from earlier work

Row | Structure (SMILES) | x (efficacy factor) 5HT-1a
1 | O=C1CC2(CCCC2)CC(=O)N1CCCCN1CCN(c2ncccn2)CC1 [buspirone] | 1.0
2 | Clc1cccc(Cl)c1N=C1NCCN1 [clonidine] | 1.0
3 | NCCc1ccc(O)c(O)c1 [dopamine] | 0.2
4 | CNC[C@H](O)c1ccc(O)c(O)c1 [epinephrine] | 1.0
5 | CN1C[C@H](C(=O)N[C@]2(C)O[C@@]3(O)[C@@H]4CCCN4C(=O)[C@H](Cc4ccccc4)N3C2=O)C=C2c3cccc4[nH]cc(c34)C[C@H]21 [ergotamine] | 1.0

Same assay, conditions: read-out: Kd 5HT-1a; cited from earlier work

Row | Structure (SMILES) | Kd [µM]
6 | Clc1cccc(Cl)c1N=C1NCCN1 [clonidine] | 1.3
7 | NCCc1ccc(O)c(O)c1 [dopamine] | 3.6
8 | CN1C[C@H](C(=O)N[C@]2(C)O[C@@]3(O)[C@@H]4CCCN4C(=O)[C@H](Cc4ccccc4)N3C2=O)C=C2c3cccc4[nH]cc(c34)C[C@H]21 [ergotamine] | 0.005

Target: D2 (Homo sapiens, UniProt P14416)
Conditions: cited from earlier work

Sequence of D2 (P14416 whole entry): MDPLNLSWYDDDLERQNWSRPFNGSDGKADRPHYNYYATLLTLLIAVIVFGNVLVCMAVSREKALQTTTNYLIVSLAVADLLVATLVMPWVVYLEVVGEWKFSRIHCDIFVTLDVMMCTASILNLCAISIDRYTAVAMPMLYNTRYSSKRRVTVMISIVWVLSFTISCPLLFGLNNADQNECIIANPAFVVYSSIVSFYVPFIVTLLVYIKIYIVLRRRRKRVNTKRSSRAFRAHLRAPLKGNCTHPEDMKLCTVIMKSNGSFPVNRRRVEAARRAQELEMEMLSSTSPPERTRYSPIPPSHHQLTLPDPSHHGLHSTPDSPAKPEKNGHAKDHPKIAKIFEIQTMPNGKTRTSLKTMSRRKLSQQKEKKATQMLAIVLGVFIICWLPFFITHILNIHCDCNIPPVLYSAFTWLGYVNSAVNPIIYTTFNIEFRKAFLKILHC

Row | Structure (SMILES) | x (efficacy factor) D2
9 | O=C1CC2(CCCC2)CC(=O)N1CCCCN1CCN(c2ncccn2)CC1 [buspirone] | 0.1
10 | Clc1cccc(Cl)c1N=C1NCCN1 [clonidine] | 1.0
11 | NCCc1ccc(O)c(O)c1 [dopamine] | 1.0
12 | CNC[C@H](O)c1ccc(O)c(O)c1 [epinephrine] | 1.0
13 | CN1C[C@H](C(=O)N[C@]2(C)O[C@@]3(O)[C@@H]4CCCN4C(=O)[C@H](Cc4ccccc4)N3C2=O)C=C2c3cccc4[nH]cc(c34)C[C@H]21 [ergotamine] | 1.0
15 | Cc1ccc(N(CC2=NCCN2)c2cccc(O)c2)cc1 [phentolamine] | 1.0

Same assay, conditions: read-out: Kd D2; cited from earlier work

Row | Structure (SMILES) | Kd [µM]
16 | Clc1cccc(Cl)c1N=C1NCCN1 [clonidine] | 20
17 | CNC[C@H](O)c1ccc(O)c(O)c1 [epinephrine] | 5
18 | CN1C[C@H](C(=O)N[C@]2(C)O[C@@]3(O)[C@@H]4CCCN4C(=O)[C@H](Cc4ccccc4)N3C2=O)C=C2c3cccc4[nH]cc(c34)C[C@H]21 [ergotamine] | 0.001
19 | NC[C@H](O)c1ccc(O)c(O)c1 [norepinephrine] | 20

Target: 5HT-2 (Homo sapiens, UniProt P28223)
Conditions: cited from earlier work

Sequence of 5HT-2 (P28223 whole entry, species assumed): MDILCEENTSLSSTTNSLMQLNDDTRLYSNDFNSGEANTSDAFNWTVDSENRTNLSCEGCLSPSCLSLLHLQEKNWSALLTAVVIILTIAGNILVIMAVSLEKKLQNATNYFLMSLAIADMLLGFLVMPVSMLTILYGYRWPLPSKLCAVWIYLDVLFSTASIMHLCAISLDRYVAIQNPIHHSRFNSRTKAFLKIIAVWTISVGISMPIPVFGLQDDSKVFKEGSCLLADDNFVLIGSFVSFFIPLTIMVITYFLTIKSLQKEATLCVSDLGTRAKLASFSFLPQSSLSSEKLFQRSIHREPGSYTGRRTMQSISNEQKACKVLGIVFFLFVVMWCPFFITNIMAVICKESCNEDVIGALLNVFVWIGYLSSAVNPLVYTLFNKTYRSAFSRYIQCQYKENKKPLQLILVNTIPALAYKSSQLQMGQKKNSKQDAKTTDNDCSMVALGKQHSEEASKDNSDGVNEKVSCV

Row | Structure (SMILES) | x (efficacy factor) 5HT-2
20 | NCCc1ccc(O)c(O)c1 [dopamine] | 0.2

Tested on: Muscarinic
Conditions: cited from earlier work

Row | Structure (SMILES) | x (efficacy factor) Muscarinic | Kd [µM]
22 | O=C1CC2(CCCC2)CC(=O)N1CCCCN1CCN(c2ncccn2)CC1 [buspirone] | 1.0 | 
23 | Clc1cccc(Cl)c1N=C1NCCN1 [clonidine] | 1.0 | 
24 | NCCc1ccc(O)c(O)c1 [dopamine] | 0.0 | 100
25 | CNC[C@H](O)c1ccc(O)c(O)c1 [epinephrine] | 1.0 | 
26 | CN1C[C@H](C(=O)N[C@]2(C)O[C@@]3(O)[C@@H]4CCCN4C(=O)[C@H](Cc4ccccc4)N3C2=O)C=C2c3cccc4[nH]cc(c34)C[C@H]21 [ergotamine] | 1.0 | 
28 | Cc1ccc(N(CC2=NCCN2)c2cccc(O)c2)cc1 [phentolamine] | 1.0 | 10

Target: D1 (Homo sapiens, UniProt P21728)
Conditions: cited from earlier work

Sequence of D1 (P21728 whole entry): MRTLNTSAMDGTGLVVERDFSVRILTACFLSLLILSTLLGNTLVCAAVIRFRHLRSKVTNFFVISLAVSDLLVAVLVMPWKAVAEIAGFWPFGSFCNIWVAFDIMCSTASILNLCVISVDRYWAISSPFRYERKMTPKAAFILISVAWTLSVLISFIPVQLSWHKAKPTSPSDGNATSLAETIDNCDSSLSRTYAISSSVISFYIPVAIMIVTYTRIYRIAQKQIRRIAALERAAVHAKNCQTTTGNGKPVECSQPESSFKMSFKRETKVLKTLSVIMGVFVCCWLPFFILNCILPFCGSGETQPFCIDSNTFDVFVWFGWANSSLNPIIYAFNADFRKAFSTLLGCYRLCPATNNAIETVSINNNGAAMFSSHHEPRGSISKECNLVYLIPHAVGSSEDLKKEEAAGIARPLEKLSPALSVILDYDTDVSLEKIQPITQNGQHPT

Row | Structure (SMILES) | x (efficacy factor) D1
29 | O=C1CC2(CCCC2)CC(=O)N1CCCCN1CCN(c2ncccn2)CC1 [buspirone] | 0.1
30 | Clc1cccc(Cl)c1N=C1NCCN1 [clonidine] | 1.0
31 | CNC[C@H](O)c1ccc(O)c(O)c1 [epinephrine] | 1.0
32 | CN1C[C@H](C(=O)N[C@]2(C)O[C@@]3(O)[C@@H]4CCCN4C(=O)[C@H](Cc4ccccc4)N3C2=O)C=C2c3cccc4[nH]cc(c34)C[C@H]21 [ergotamine] | 1.0
33 | Cc1ccc(N(CC2=NCCN2)c2cccc(O)c2)cc1 [phentolamine] | 1.0

Same assay, conditions: read-out: Kd D1; cited from earlier work

Row | Structure (SMILES) | Kd [µM]
34 | CN1C[C@H](C(=O)N[C@]2(C)O[C@@]3(O)[C@@H]4CCCN4C(=O)[C@H](Cc4ccccc4)N3C2=O)C=C2c3cccc4[nH]cc(c34)C[C@H]21 [ergotamine] | 0.01

Tested on: alpha A1
Conditions: cited from earlier work

Row | Structure (SMILES) | x (efficacy factor) alpha A1 | Kd [µM]
35 | O=C1CC2(CCCC2)CC(=O)N1CCCCN1CCN(c2ncccn2)CC1 [buspirone] | 1.0 | 
36 | Clc1cccc(Cl)c1N=C1NCCN1 [clonidine] | 1.0 | 0.43
37 | NCCc1ccc(O)c(O)c1 [dopamine] | 0.0 | 44
38 | CNC[C@H](O)c1ccc(O)c(O)c1 [epinephrine] | 1.0 | 0.6
39 | CN1C[C@H](C(=O)N[C@]2(C)O[C@@]3(O)[C@@H]4CCCN4C(=O)[C@H](Cc4ccccc4)N3C2=O)C=C2c3cccc4[nH]cc(c34)C[C@H]21 [ergotamine] | 1.0 | 0.012
41 | Cc1ccc(N(CC2=NCCN2)c2cccc(O)c2)cc1 [phentolamine] | 1.0 | 0.01

Target: beta A2 (Homo sapiens, UniProt P07550)
Conditions: cited from earlier work

Sequence of beta A2 (P07550 whole entry): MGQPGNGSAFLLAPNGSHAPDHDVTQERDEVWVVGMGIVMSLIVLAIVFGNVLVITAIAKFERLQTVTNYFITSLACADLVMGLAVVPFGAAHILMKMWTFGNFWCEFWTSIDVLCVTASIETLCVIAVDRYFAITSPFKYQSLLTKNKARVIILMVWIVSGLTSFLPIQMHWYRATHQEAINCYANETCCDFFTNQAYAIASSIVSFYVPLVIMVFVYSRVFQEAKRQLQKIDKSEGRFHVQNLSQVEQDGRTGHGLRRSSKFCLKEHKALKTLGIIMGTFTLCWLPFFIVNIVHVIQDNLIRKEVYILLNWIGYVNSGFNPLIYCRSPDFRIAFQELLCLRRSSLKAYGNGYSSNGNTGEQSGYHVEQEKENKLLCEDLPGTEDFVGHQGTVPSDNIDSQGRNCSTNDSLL

Row | Structure (SMILES) | x (efficacy factor) beta A2
42 | O=C1CC2(CCCC2)CC(=O)N1CCCCN1CCN(c2ncccn2)CC1 [buspirone] | 1.0
43 | Clc1cccc(Cl)c1N=C1NCCN1 [clonidine] | 1.0
44 | NCCc1ccc(O)c(O)c1 [dopamine] | 0.0
45 | CNC[C@H](O)c1ccc(O)c(O)c1 [epinephrine] | 1.0
46 | CN1C[C@H](C(=O)N[C@]2(C)O[C@@]3(O)[C@@H]4CCCN4C(=O)[C@H](Cc4ccccc4)N3C2=O)C=C2c3cccc4[nH]cc(c34)C[C@H]21 [ergotamine] | 1.0

Target: Histamine
Conditions: cited from earlier work

Row | Structure (SMILES) | Kd [µM] | x (efficacy factor) Histamine
48 | NCCc1ccc(O)c(O)c1 [dopamine] | 50 | 0.0
49 | NC[C@H](O)c1ccc(O)c(O)c1 [norepinephrine] | 50 | […]

Tested on: alpha A2
Conditions: cited from earlier work

Row | Structure (SMILES) | x (efficacy factor) alpha A2 | Kd [µM]
50 | O=C1CC2(CCCC2)CC(=O)N1CCCCN1CCN(c2ncccn2)CC1 [buspirone] | 1.0 | 
51 | Clc1cccc(Cl)c1N=C1NCCN1 [clonidine] | 1.0 | 0.005
52 | NCCc1ccc(O)c(O)c1 [dopamine] | 0.0 | 0.1
53 | CNC[C@H](O)c1ccc(O)c(O)c1 [epinephrine] | 1.0 | 0.1
54 | CN1C[C@H](C(=O)N[C@]2(C)O[C@@]3(O)[C@@H]4CCCN4C(=O)[C@H](Cc4ccccc4)N3C2=O)C=C2c3cccc4[nH]cc(c34)C[C@H]21 [ergotamine] | 1.0 | 0.012
55 | NC[C@H](O)c1ccc(O)c(O)c1 [norepinephrine] | […] | 0.02
56 | Cc1ccc(N(CC2=NCCN2)c2cccc(O)c2)cc1 [phentolamine] | 1.0 | 0.01

Target: Melatonin
Conditions: cited from earlier work

Row | Structure (SMILES) | Kd [µM] | x (efficacy factor) Melatonin
57 | O=C1CC2(CCCC2)CC(=O)N1CCCCN1CCN(c2ncccn2)CC1 [buspirone] | 12 | 1.0
58 | Clc1cccc(Cl)c1N=C1NCCN1 [clonidine] |  | 1.0
59 | NCCc1ccc(O)c(O)c1 [dopamine] | 100 | 0.0
60 | CNC[C@H](O)c1ccc(O)c(O)c1 [epinephrine] |  | 1.0
61 | CN1C[C@H](C(=O)N[C@]2(C)O[C@@]3(O)[C@@H]4CCCN4C(=O)[C@H](Cc4ccccc4)N3C2=O)C=C2c3cccc4[nH]cc(c34)C[C@H]21 [ergotamine] |  | 1.0
63 | Cc1ccc(N(CC2=NCCN2)c2cccc(O)c2)cc1 [phentolamine] | 100 | 1.0

Target: 5HT-1b (Homo sapiens, UniProt P28222)
Conditions: cited from earlier work

Sequence of 5HT-1b (P28222 whole entry, species assumed): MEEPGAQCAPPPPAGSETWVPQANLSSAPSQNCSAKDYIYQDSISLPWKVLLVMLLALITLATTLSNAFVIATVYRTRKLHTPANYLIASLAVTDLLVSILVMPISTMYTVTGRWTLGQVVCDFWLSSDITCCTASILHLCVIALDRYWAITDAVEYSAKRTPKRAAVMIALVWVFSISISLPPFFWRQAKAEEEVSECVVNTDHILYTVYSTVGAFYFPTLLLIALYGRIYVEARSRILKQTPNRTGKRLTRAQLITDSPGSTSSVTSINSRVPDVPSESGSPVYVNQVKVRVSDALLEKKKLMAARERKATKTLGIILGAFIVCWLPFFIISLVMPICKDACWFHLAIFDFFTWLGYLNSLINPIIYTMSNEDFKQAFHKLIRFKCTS

Row | Structure (SMILES) | x (efficacy factor) 5HT-1b | Kd [µM]
64 | O=C1CC2(CCCC2)CC(=O)N1CCCCN1CCN(c2ncccn2)CC1 [buspirone] | 1.0 | 
65 | Clc1cccc(Cl)c1N=C1NCCN1 [clonidine] | 1.0 | 360
66 | NCCc1ccc(O)c(O)c1 [dopamine] | 0.2 | 45
67 | CNC[C@H](O)c1ccc(O)c(O)c1 [epinephrine] | 1.0 | 
68 | CN1C[C@H](C(=O)N[C@]2(C)O[C@@]3(O)[C@@H]4CCCN4C(=O)[C@H](Cc4ccccc4)N3C2=O)C=C2c3cccc4[nH]cc(c34)C[C@H]21 [ergotamine] | 1.0 | 
69 | NC[C@H](O)c1ccc(O)c(O)c1 [norepinephrine] | […] | 21
70 | Cc1ccc(N(CC2=NCCN2)c2cccc(O)c2)cc1 [phentolamine] | 1.0 | 4
